Laboratory results reported in US5977442A, “Salicylic acid induced map kinase and its use for enhanced disease resistance in plants” (priority 1997, dated 1999).

Key:
[1] = test system: 200 kDa and 75 kDa kinase activity bands; settings: long exposure of autoradiogram
Description: (§1) The cell suspension culture was derived from callus tissue originated from leaves of Nicotiana tabacum cv Xanthi nc and grown in MS medium supplemented with 1 mg/L α-naphthaleneacetic acid, 0.1 mg/L 2,4-dichlorophenoxyacetic acid, 0.1 mg/L benzyladenine, and 3% sucrose. Log phase cells were used three days after a 1:10 dilution. Treatment with H2 O2, SA and its analogues was performed in the original flasks in the dark to avoid any stresses associated with transfer. At various times, 10 mL cells (approximately 0.2 to 0.3 g fresh weight of cells) were harvested by filtration. The cells were quickly frozen in liquid nitrogen and stored at -80° C. until analysis.
The in-gel kinase assay was performed as described previously (Zhang et al., 1993). Extracts containing 10 μg protein were electrophoresed on 10% SDS-polyacrylamide gels imbedded with either 1 mg/mL of casein, 1 mg/mL histone (Type III-SS, Sigma, MO), 1 mg/mL BSA, or 0.25 mg/mL of MBP in the separating gel as substrate for the kinase. After electrophoresis, SDS was removed by washing the gel with washing buffer (25 mM Tris, pH 7.5, 0.5 mM DTT, 0.1 mM Na3 VO4, 5 mM NaF, 0.5 mg/mL BSA, 0.1% Triton X-100 [v/v]). The buffer was changed three times, each for 30 minutes at room temperature. […] Quantitation of the relative kinase activities were done using a phosphoimager (Molecular Dynamics Inc., CA).

p48 SIP kinase [2] = experiment: In-gel kinase activity assay (MBP substrate) in extracts of treated tobacco suspension cells: activation of p48 SIP kinase; assay type: cell-based, Nicotiana tabacum cv Xanthi nc
Description: as §1
Leaf discs were first ground to a fine powder in 1.5 ml microcentrifuge tubes using small plastic pestles. After adding 0.25 mL extraction buffer (100 mM Hepes, pH 7.5, 5 mM EDTA, 5 mM EGTA, 10 mM DTT, 10 mM Na3 VO4, 10 mM NaF, 50 mM β-glycerolphosphate, 1 mM phenylmethylsulfonyl fluoride, 5 μg/mL antipain, 5 μg/mL aprotinin, 5 μg/mL leupeptin, 10% glycerol, 7.5% polyvinylpolypyrrolidone), the mixture was sonicated for 15 seconds with a W-375 Sonicator (Heat System-Ultrasonics, Inc., N.Y.) fitted with a microprobe at setting 4 and 80% duty cycle. To prepare extracts from treated cells, cells were mixed with two volumes (w/v) of extraction buffer and were then sonicated twice for 15 seconds each in 1.5 mL microcentrifuge tube. After centrifugation at 13,000 rpm for 20 minutes, supernatants were transferred into clean tubes, quickly frozen in liquid nitrogen and stored at -80° C.
The in-gel kinase assay was performed as described previously (Zhang et al., 1993). Extracts containing 10 μg protein were electrophoresed on 10% SDS-polyacrylamide gels imbedded with either 1 mg/mL of casein, 1 mg/mL histone (Type III-SS, Sigma, MO), 1 mg/mL BSA, or 0.25 mg/mL of MBP in the separating gel as substrate for the kinase. After electrophoresis, SDS was removed by washing the gel with washing buffer (25 mM Tris, pH 7.5, 0.5 mM DTT, 0.1 mM Na3 VO4, 5 mM NaF, 0.5 mg/mL BSA, 0.1% Triton X-100 [v/v]). The buffer was changed three times, each for 30 minutes at room temperature. The kinases were allowed to renature in 25 mM Tris, pH 7.5, 1 mM DTT, 0.1 mM Na3 VO4, 5 mM NaF at 4° C. overnight with three changes of buffer. The gel was then incubated at room temperature in 30 mL reaction buffer (25 mM Tris, pH 7.5, 2 mM EGTA, 12 mM MgCl2, 1 mM DTT, 0.1 mM Na3 VO4) with 200 nM ATP plus 50 μCi γ-^32 P-ATP (3000 Ci/mmole) for 60 minutes. The reaction was stopped by transferring the gel into 5% TCA (w/v)/1% NaPPi (w/v). The unincorporated γ-^32 P-ATP was removed by washing in the same solution for at least 6 hours with 5 changes of buffer. The gel was dried onto 3 MM paper and exposed to Kodak XAR-5 film. Prestained size markers (Bio-Rad, CA) were used to calculate the size of the kinases. Quantitation of the relative kinase activities were done using a phosphoimager (Molecular Dynamics Inc., CA).

[3] = test system: tyrosine-phosphorylated proteins; settings: in response to H2 O2
Description: as §1
(§2) Protein extracts were separated by SDS-PAGE on 10% acrylamide gels, and the proteins were transferred to nitrocellulose membrane by semidry electroblotting. The membrane was blocked for 2 hours in TBS buffer (20 mM Tris, pH 7.5, 150 mM NaCl, 0.1% Tween 20, 0.1 mM Na3 VO4) with 10% BSA at room temperature, and then incubated with the phosphotyrosine-specific monoclonal antibody 4G10 (Upstate Biotechnology Incorporated, NY) in TBS buffer with BSA for 1 hr. After the blot was incubated with horseradish peroxidase-conjugated secondary antibody, the complexes were visualized using an enhanced chemiluminescence kit (DuPont, MA) following the manufacture's instructions.

[4] = test system: 58 kDa, 52 kDa, and 40 kDa kinases; settings: 1 mM and 2 mM
Description: as §1
Leaf discs were first ground to a fine powder in 1.5 ml microcentrifuge tubes using small plastic pestles. […]
The in-gel kinase assay was performed as described previously (Zhang et al., 1993). […] Quantitation of the relative kinase activities were done using a phosphoimager (Molecular Dynamics Inc., CA).

[5] = test system: phosphotyrosine-containing 48 kDa protein; experiment: Immunoblot analysis with anti-phosphotyrosine antibody 4G10 of treated cell extracts; assay type: cell-based, Nicotiana tabacum cv Xanthi nc; settings: 250 μM SA or 2 mM H2 O2; FIG. 4A
Description: as §1, §2

[6] = test system: the two major H2 O2 -scavenging enzymes; settings: Chen et al., 1993; Durner and Klessig, 1995; cited from earlier work
p48 SIP kinase [7] = experiment: Activation of p48 SIP kinase in tobacco leaves after injection; assay type: in vivo, N. tabacum cv Xanthi nc
Description: (§3) Tobacco plants (N. tabacum cv Xanthi nc) were grown at 22° C. in a growth room programmed for a 14-hr light cycle. Plants approximately 7-8 weeks old were used for experiments. For temperature-shift experiments, plants were transferred to a 32° C. chamber one day before inoculation. TMV strain U1 was used at a concentration of 1 μg/mL in 50 mM phosphate buffer, pH 7.0; mock inoculation was done with buffer only. After 48 hours infected plants were shifted back to 22° C. and leaf discs (1 cm in diameter) were taken at the indicated times. For water or SA treatment, one leaf from each plant was injected with solution using a syringe until the entire leaf was infiltrated.

[8] = test system: kinase activities in extracts from SA-treated cells (casein, histone, or BSA as substrate); experiment: In-gel kinase activity assay with casein, histone or BSA as substrate in extracts of treated tobacco suspension cells; assay type: cell-based, Nicotiana tabacum cv Xanthi nc
44 kDa kinase = experiment: Activation of 44 kDa kinase in tobacco leaves; assay type: in vivo, N. tabacum cv Xanthi nc; settings: SA treatment of tobacco plants
Description: as §3

p48 SIP kinase [9] = experiment: Treatment of p48 SIP kinase with phosphatases; assay type: biochemical, tobacco; settings: okadaic acid against PP1; Na3 VO4 against YOP
Description: FIG. 13 is a histogram showing inactivation of p48 SIP kinase by phosphatase treatment. Approximately 20 units of the SIP kinase was treated with either the serine/threonine-specific phosphatase PPI (0.1 units) or the tyrosine-specific protein phosphatase YOP (0.5 units) for 10 min (bars 2 to 5) or 30 min (bars 7 to 10) at 30° C. in the presence or absence of a phosphatase inhibitor. Bars 1 and 6 represent the control without phosphatase or phosphatase inhibitor; bars 2 and 7, PPI; bars 3 and 8, PPI plus okadaic acid (1 μM); bars 4 and 9, YOP; bars 5 and 10, YOP plus Na3 VO4 (1 mM). Before assaying for SIP kinase activity, the phosphatase inhibitors were added to all of the reactions to the same final concentrations.
The phosphatase inhibitors present in the purified p48 SIP kinase preparation were first removed by dialysis against buffer B lacking β-glycerophosphate and Na3 VO4 in a 0.5-mL 10 K dialysis cassette (Slide-A-Lyzer; Pierce). For treatment with serine/threonine protein phosphatase PP1 (Calbiochem, San Diego, Calif.), MnCl2, DTT, and BSA were added to aliquots of the SIP kinase preparation to final concentrations of 200 μm, 5 mM and 100 μg/mL respectively. Then 0.1 unit of PP1 was added, and the reaction mixture was incubated at 30° C. in the presence or absence of 1 μM of the phosphatase inhibitor okadaic acid (Calbiochem). […]

TMV = settings: Dunigan et al., 1995; cited from earlier work
PR-1 gene expression = settings: Conrath et al., 1997; cited from earlier work
[10] = test system: p48 SIP kinase (precipitation by 4G10 antibody); experiment: Immunoprecipitation-kinase activity assay with 4G10 antibody and phospho-amino acid competitors; assay type: binding, Nicotiana tabacum cv Xanthi nc; settings: 1 mM competitor
Description: About 25 μL packed volume of protein A-agarose was added, and the incubation was continued for another 2 hours. Agarose bead-protein complexes were pelleted by brief centrifugation. After washing with immunoprecipitation buffer three times, 1× SDS sample buffer was added and the sample boiled for 3 minutes. After centrifugation, the supernatant fraction was electrophoresed on 10% SDS-PAGE gel, and the in-gel kinase assay was performed.

[11] = molecular target: myelin basic protein (MBP)

Question: Which “weakly induced kinase activity bands at 200 kDa and 75 kDa” value [1] does the source give for OO [H2 O2, hydrogen peroxide] here?
Answer: weakly induced

Question: And the “activation of p48 SIP kinase by H2O2” value (p48 SIP kinase [2]; 1 mM and 2 mM)?
Answer: induced several kinase activities including the p48 SIP kinase

Question: And the “kinase activity at 60 minutes after addition” value (p48 SIP kinase [2]; 60 minutes after addition of H2 O2)?
Answer: remained at peak levels

Question: And the “duration of SIP kinase activation relative to SA” value (p48 SIP kinase [2]; tobacco suspension cells, data not shown for analogues)?
Answer: more sustained compared to that induced by SA

Question: What about the “number of proteins phosphorylated on tyrosine residues” value [3] of the same molecule?
Answer: at least four

Question: And the “activation of other kinases (58, 52, 40 kDa)” value [4]?
Answer: induced several kinase activities

Question: And the “tyrosine phosphorylation of 48 kDa protein” value [5]?
Answer: prolonged phosphorylation of tyrosine residue(s) on a 48 kDa protein

Question: Which results are given for O=C(O)c1ccccc1O [SA, salicylic acid]?
Answer: inhibition of the two major H2O2-scavenging enzymes [6]: can inhibit the two major H2 O2 -scavenging enzymes; time to peak of p48 SIP kinase activation (p48 SIP kinase [2]; 250 μM SA, tobacco suspension cells): ≤ 5 min; activation of 48 kDa (p48 SIP) kinase (p48 SIP kinase [2]; 250 μM, tobacco suspension cells, MBP substrate): activated a 48 kDa kinase; reactivation of SIP kinase by second addition of SA (p48 SIP kinase [2]; second addition up to 4 hr after initial treatment): did not reactivate the SIP kinase; minimum concentration of SA required to activate p48 kinase (p48 SIP kinase [2]; tobacco suspension cells): 100 µM; concentration at which maximum p48 kinase activity obtained (p48 SIP kinase [2]; tobacco suspension cells, FIG. 1E): 500 µM; activation of p48 SIP kinase by second injection (p48 SIP kinase [7]; leaves first injected with water, then SA): dramatic activation of the p48 SIP kinase; activation of kinase in leaves, first (rapid) peak: return to basal level (p48 SIP kinase [7]; single injection 500 μM SA): about 30 minutes; time of second, more prolonged peak of kinase activation (p48 SIP kinase [7]; single injection 500 μM SA): approximately 3 hours; increase in kinase activities with casein, histone, or BSA as substrate [8]: no increases in kinase activities were detected; activation of p44 kinase (44 kDa kinase): also evident after SA treatment of tobacco plants; tyrosine phosphorylation of 48 kDa protein [5]: transient increase in the level of a phosphotyrosine-containing 48 kDa protein

Question: What does the source list for C=C1[C@@H](O)[C@@H]2O[C@]3(CC[C@H](/C=C/[C@@H](C)[C@@H]4CC(C)=C[C@@]5(O[C@H](C[C@@](C)(O)C(=O)O)CC[C@H]5O)O4)O3)CC[C@H]2O[C@@H]1[C@@H](O)C[C@H](C)[C@H]1O[C@@]2(CCCCO2)CC[C@H]1C [okadaic acid]?
Answer: prevention of phosphatase inactivation of SIP kinase (p48 SIP kinase [9]): could be prevented; inhibition of lesion formation after TMV infection (TMV): lesion formation after TMV infection was inhibited; blocking of SA-mediated induction of PR-1 gene expression (PR-1 gene expression): blocked the SA-mediated induction of PR-1 gene expression

Question: For N[C@@H](Cc1ccc(OP(=O)(O)O)cc1)C(=O)O [phosphotyrosine], which “inhibition of precipitation of p48 SIP kinase” value [10] is on record?
Answer: inhibited precipitation of the p48 SIP kinase

Question: Which phosphorylation of MBP, in-solution kinase assay (Km for MBP) [11] does the source give for “p48 SIP kinase (salicylic acid-induced protein kinase), activated form from SA- or H2O2-treated tobacco cells, in extracts or purified (enzyme)” here?
Answer: 0.19 mg/mL
